# Reference: US8338565B2, “Macrocyclic compounds for inhibition of tumor necrosis factor alpha” (Ensemble Therapeutics Corporation, priority 2008, dated 2012)
# Numbered stars: 1 amine (or outer) side, 2 acyl side, 3 side chain; on linkers, the order of the positions; unused ones are H or OH. Bridge positions count the residues as written; N and C are the ends. Square brackets hold non-standard residues; d marks the D form. Peptide text beside a SMILES is read from it. * marks the point of attachment. Phe(4-CF3) = N[C@@H](Cc1ccc(C(F)(F)F)cc1)C(=O)O; Bip = N[C@@H](Cc1ccc(-c2ccccc2)cc1)C(=O)O; dPhe(4-NH2) = Nc1ccc(C[C@@H](N)C(=O)O)cc1; Nip(3R) = O=C([C@@H]1CCCN([*:1])C1)[*:2]; Phe(4-NH2) = Nc1ccc(C[C@H](N)C(=O)O)cc1; dAla(2-furyl) = N[C@H](Cc1ccco1)C(=O)O; d(hPhe) = N[C@H](CCc1ccccc1)C(=O)O; 2Pal = N[C@@H](Cc1ccccn1)C(=O)O; 3Pal = N[C@@H](Cc1cccnc1)C(=O)O; 4Pal = N[C@@H](Cc1ccncc1)C(=O)O; Malonyl = O=C(CC(=O)[*:2])[*:1]; d3Pal = N[C@H](Cc1cccnc1)C(=O)O; d4Pal = N[C@H](Cc1ccncc1)C(=O)O; d2Thi = N[C@H](Cc1cccs1)C(=O)O; Suc = O=C(CCC(=O)[*:2])[*:1]; X2 = O=C(O)[C@H]1CCCN(*)C1; NMeA = CN[C@@H](C)C(=O)O; Nphe = O=C(O)CNCc1ccccc1; Ac3c = NC1(C(=O)O)CC1; Aib = CC(C)(N)C(=O)O; Inp = O=C(O)C1CCNCC1
# Biological target: T1, TNFα / TNFα receptor (TNFα R1/Fc) (Homo sapiens, UniProt P01375)
# T1 construct: purchased R&D Systems
# Assay: Inhibition of binding of TNFα to the TNFα receptor (plate ELISA competition)
# Conditions: Table 2; read-out: Activity (IC50, inhibition of TNFα binding to TNFα R1/Fc)
# Experimental: The compounds listed in Table 2 below were assayed for ability to inhibit binding of TNFα to the TNFα receptor (TNFα R1/Fc). The assays were performed as described in the following procedure: TNFα (R&D Systems) was coated on high binding plate wells (Corning 96-well) at a single uniform concentration of 15 nM, 100 μL/well in PBS. The coating proceeded for 30 minutes at 37° C. then 10 minutes at 4° C. The coated plate was washed with PBST, then 250 μL/well of blocking solution (PBST 0.1% BSA, bovine serum albumin) was added and incubation proceeded for 30-45 minutes at room temperature with agitation. The solution phase competition proceeded separately with the dilutions of test compound in PBST (phosphate buffered saline with Tween 20), 2% DMSO in a polypropylene plate (Corning 96-well storage plate) with a single concentration, 8.33 nM of the high affinity receptor for TNFα (R&D Systems). This solution phase incubation proceeded for 30 minutes at room temperature with agitation and was then added to the washed TNFα coated assay plate, 100 μL/well, and was incubated for a further 30 minutes at room temperature with agitation. The assay plate was washed and 100 μL goat anti-human IgG (Fc) HRP labeled antibody in PBST, 13 pM, (KPL Cat#04-10-2) was added to each well. This incubation proceeded for 25-30 minutes at room temperature with agitation. Following this incubation step, the plate was washed and a 100 μL TMB solution (SUREBLUE™ TMB Peroxidase substrate, KPL) was added per well and allowed to stand approximately 3-5 minutes for development. The TMB reaction was stopped with the addition of 0.5N HCl and then the plate was read for absorbance at 450 nm.
# T1 sequence (P01375 77-233 limits assumed, species assumed): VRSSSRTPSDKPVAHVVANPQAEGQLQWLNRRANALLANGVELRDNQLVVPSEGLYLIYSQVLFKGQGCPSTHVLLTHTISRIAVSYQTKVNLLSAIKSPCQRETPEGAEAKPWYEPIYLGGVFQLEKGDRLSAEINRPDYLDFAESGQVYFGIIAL
row,Compound,IC50 [µM]
1,O=C1CCC(=O)N[C@H](CCc2ccccc2)C(=O)N[C@@H](Cc2ccc(C(F)(F)F)cc2)C(=O)N[C@H](Cc2ccccc2)C(=O)N[C@H](C(=O)O)Cc2ccc(cc2)N1 [Compound 2] ([d(hPhe)][Phe(4-CF3)][dF][Phe(4-NH2)]-OH; linker N-4 via Suc),> 100
2,O=C1CC(=O)N[C@H](Cc2cccs2)C(=O)N[C@@H](Cc2ccc(-c3ccccc3)cc2)C(=O)N[C@H](Cc2ccccc2)C(=O)N[C@H](C(=O)O)Cc2ccc(cc2)N1 [Compound 5] ([d2Thi][Bip][dF][Phe(4-NH2)]-OH; linker N-4 via Malonyl),30 to 100
3,O=C1CCNc2ccc(cc2)C[C@@H](C(=O)O)NC(=O)[C@@H](Cc2ccccc2)NC(=O)[C@H](Cc2ccc(-c3ccccc3)cc2)NC(=O)[C@@H](Cc2cccs2)N1 [Compound 6],> 100
4,O=C(O)CN1Cc2cccc(c2)CNC(=O)CCC(=O)N[C@H](Cc2cccs2)C(=O)N[C@@H](Cc2ccc(-c3ccccc3)cc2)C(=O)N[C@H](Cc2ccccc2)C1=O [Compound 7],> 100
5,O=C1COc2ccc(cc2)C[C@@H](C(=O)O)NC(=O)[C@@H](Cc2ccccc2)NC(=O)[C@H](Cc2ccc(-c3ccccc3)cc2)NC(=O)[C@@H](Cc2cccs2)N1 [Compound 8],30 to 100
6,O=C(O)[C@@H]1Cc2ccc(cc2)NC(=O)[C@@H]2CCCC[C@H]2C(=O)N[C@H](Cc2cccs2)C(=O)N[C@@H](Cc2ccc(-c3ccccc3)cc2)C(=O)N[C@H](Cc2ccccc2)C(=O)N1 [Compound 9],10 to 30
7,O=C1CCC(=O)N[C@H](CCc2ccccc2)C(=O)N[C@@H](Cc2ccc(C(F)(F)F)cc2)C(=O)N[C@H](Cc2ccccc2)C(=O)N[C@@H](C(=O)N[C@H](Cc2ccccc2)C(=O)O)Cc2ccc(cc2)N1 [Compound 13] ([d(hPhe)][Phe(4-CF3)][dF][dPhe(4-NH2)][dF]-OH; linker N-4 via Suc),> 100
8,CC(C)(NC(=O)[C@H]1Cc2ccc(cc2)NC(=O)CCC(=O)N[C@H](CCc2ccccc2)C(=O)N[C@@H](Cc2ccc(C(F)(F)F)cc2)C(=O)N[C@H](Cc2ccccc2)C(=O)N1)C(=O)O [Compound 14] ([d(hPhe)][Phe(4-CF3)][dF][dPhe(4-NH2)][Aib]-OH; linker N-4 via Suc),30 to 100
9,O=C1CCC(=O)N[C@H](CCc2ccccc2)C(=O)N[C@@H](Cc2ccc(C(F)(F)F)cc2)C(=O)N[C@H](Cc2ccccc2)C(=O)N[C@@H](C(=O)NC2(C(=O)O)CC2)Cc2ccc(cc2)N1 [Compound 17] ([d(hPhe)][Phe(4-CF3)][dF][dPhe(4-NH2)][Ac3c]-OH; linker N-4 via Suc),10 to 30
10,O=C1CCC(=O)N[C@H](Cc2cccs2)C(=O)N[C@@H](Cc2ccc(-c3ccccc3)cc2)C(=O)N[C@H](Cc2ccccc2)C(=O)N[C@H](C(=O)N[C@@H](CO)C(=O)O)Cc2ccc(cc2)N1 [Compound 22] ([d2Thi][Bip][dF][Phe(4-NH2)]S-OH; linker N-4 via Suc),30 to 100
11,O=C1CCC(=O)N[C@H](Cc2cccs2)C(=O)N[C@@H](Cc2ccc(-c3ccccc3)cc2)C(=O)N[C@H](Cc2ccccc2)C(=O)N[C@H](C(=O)N2CCC(C(=O)O)CC2)Cc2ccc(cc2)N1 [Compound 23] ([d2Thi][Bip][dF][Phe(4-NH2)][Inp]-OH; linker N-4 via Suc),> 100
12,CC(C)(NC(=O)[C@@H]1Cc2ccc(cc2)NC(=O)CCC(=O)N[C@H](Cc2cccs2)C(=O)N[C@@H](Cc2ccc(-c3ccccc3)cc2)C(=O)N[C@H](Cc2ccccc2)C(=O)N1)C(=O)O [Compound 25] ([d2Thi][Bip][dF][Phe(4-NH2)][Aib]-OH; linker N-4 via Suc),< 10
13,O=C(O)C[C@H](NC(=O)[C@@H]1Cc2ccc(cc2)NC(=O)CCC(=O)N[C@H](Cc2cccs2)C(=O)N[C@@H](Cc2ccc(-c3ccccc3)cc2)C(=O)N[C@H](Cc2ccccc2)C(=O)N1)C(=O)O [Compound 27] ([d2Thi][Bip][dF][Phe(4-NH2)]D-OH; linker N-4 via Suc),> 100
14,NCCCC[C@H](NC(=O)[C@@H]1Cc2ccc(cc2)NC(=O)CCC(=O)N[C@H](Cc2cccs2)C(=O)N[C@@H](Cc2ccc(-c3ccccc3)cc2)C(=O)N[C@H](Cc2ccccc2)C(=O)N1)C(=O)O [Compound 28] ([d2Thi][Bip][dF][Phe(4-NH2)]K-OH; linker N-4 via Suc),< 10
15,C[C@@H](C(=O)O)N(C)C(=O)[C@@H]1Cc2ccc(cc2)NC(=O)CCC(=O)N[C@H](Cc2cccs2)C(=O)N[C@@H](Cc2ccc(-c3ccccc3)cc2)C(=O)N[C@H](Cc2ccccc2)C(=O)N1 [Compound 30] ([d2Thi][Bip][dF][Phe(4-NH2)][NMeA]-OH; linker N-4 via Suc),10 to 30
16,O=C1CCC(=O)N[C@H](Cc2cccs2)C(=O)N[C@@H](Cc2ccc(-c3ccccc3)cc2)C(=O)N[C@H](Cc2ccccc2)C(=O)N[C@H](C(=O)N2CCC[C@@H]2C(=O)O)Cc2ccc(cc2)N1 [Compound 32] ([d2Thi][Bip][dF][Phe(4-NH2)][dP]-OH; linker N-4 via Suc),> 100
17,O=C1CCC(=O)N[C@H](Cc2cccs2)C(=O)N[C@@H](Cc2ccc(-c3ccccc3)cc2)C(=O)N[C@H](Cc2ccccc2)C(=O)N[C@H](C(=O)N2CCC[C@H](C(=O)O)C2)Cc2ccc(cc2)N1 [Compound 37] ([d2Thi][Bip][dF][Phe(4-NH2)]-X2; linker N-4 via Suc),> 100
18,O=C1CCC(=O)N[C@H](Cc2cccs2)C(=O)N[C@@H](Cc2ccc(-c3ccccc3)cc2)C(=O)N[C@H](Cc2ccccc2)C(=O)N[C@H](C(=O)N2CCC[C@@H](C(=O)O)C2)Cc2ccc(cc2)N1 [Compound 38] ([d2Thi][Bip][dF][Phe(4-NH2)]-{Nip(3R)}; linker N-4 via Suc),30 to 100
19,O=C1CCC(=O)N[C@H](Cc2cccs2)C(=O)N[C@@H](Cc2ccc(-c3ccccc3)cc2)C(=O)N[C@H](Cc2ccccc2)C(=O)N[C@H](C(=O)O)CCCCN1 [Compound 42] ([d2Thi][Bip][dF]K-OH; linker N-4 via Suc),> 100
20,C[C@H]1NC(=O)[C@H](Cc2ccc(-c3ccccc3)cc2)NC(=O)[C@@H](Cc2cccs2)NC(=O)CCC(=O)Nc2ccc(cc2)C[C@@H](C(=O)O)NC1=O [Compound 44] ([d2Thi][Bip][dA][Phe(4-NH2)]-OH; linker N-4 via Suc),> 100
21,C[C@@H]1NC(=O)[C@@H](Cc2cccs2)NC(=O)CCC(=O)Nc2ccc(cc2)C[C@@H](C(=O)O)NC(=O)[C@@H](Cc2ccccc2)NC1=O [Compound 45] ([d2Thi]A[dF][Phe(4-NH2)]-OH; linker N-4 via Suc),> 100
22,C[C@H]1NC(=O)CCC(=O)Nc2ccc(cc2)C[C@@H](C(=O)O)NC(=O)[C@@H](Cc2ccccc2)NC(=O)[C@H](Cc2ccc(-c3ccccc3)cc2)NC1=O [Compound 46] ([dA][Bip][dF][Phe(4-NH2)]-OH; linker N-4 via Suc),> 100
23,O=C1CCC(=O)N[C@H](Cc2cccs2)C(=O)N[C@@H](Cc2ccc(-c3ccccc3)cc2)C(=O)N[C@H](Cc2ccco2)C(=O)N[C@H](C(=O)O)Cc2ccc(cc2)N1 [Compound 48] ([d2Thi][Bip][dAla(2-furyl)][Phe(4-NH2)]-OH; linker N-4 via Suc),10 to 30
24,O=C1CCC(=O)N[C@H](Cc2cccs2)C(=O)N[C@@H](Cc2ccc(-c3ccccc3)cc2)C(=O)N[C@@H](Cc2ccncc2)C(=O)N[C@H](C(=O)O)Cc2ccc(cc2)N1 [Compound 49] ([d2Thi][Bip][4Pal][Phe(4-NH2)]-OH; linker N-4 via Suc),> 100
25,O=C1CCC(=O)N[C@H](Cc2cccs2)C(=O)N[C@@H](Cc2ccc(-c3ccccc3)cc2)C(=O)N[C@H](Cc2ccncc2)C(=O)N[C@H](C(=O)O)Cc2ccc(cc2)N1 [Compound 50] ([d2Thi][Bip][d4Pal][Phe(4-NH2)]-OH; linker N-4 via Suc),> 100
26,O=C1CCC(=O)N[C@H](Cc2cccs2)C(=O)N[C@@H](Cc2ccc(-c3ccccc3)cc2)C(=O)N[C@H](Cc2cccnc2)C(=O)N[C@H](C(=O)O)Cc2ccc(cc2)N1 [Compound 51] ([d2Thi][Bip][d3Pal][Phe(4-NH2)]-OH; linker N-4 via Suc),> 100
27,O=C1CCC(=O)N[C@H](Cc2cccs2)C(=O)N[C@@H](Cc2ccc(-c3ccccc3)cc2)C(=O)N[C@@H](Cc2cccnc2)C(=O)N[C@H](C(=O)O)Cc2ccc(cc2)N1 [Compound 52] ([d2Thi][Bip][3Pal][Phe(4-NH2)]-OH; linker N-4 via Suc),> 100
28,O=C1CCC(=O)N[C@H](Cc2cccs2)C(=O)N[C@@H](Cc2ccc(-c3ccccc3)cc2)C(=O)N[C@@H](Cc2ccccn2)C(=O)N[C@H](C(=O)O)Cc2ccc(cc2)N1 [Compound 53] ([d2Thi][Bip][2Pal][Phe(4-NH2)]-OH; linker N-4 via Suc),> 100
29,CC(C)C[C@@H]1NC(=O)[C@H](Cc2ccc(-c3ccccc3)cc2)NC(=O)[C@@H](Cc2cccs2)NC(=O)CCC(=O)Nc2ccc(cc2)C[C@@H](C(=O)O)NC1=O [Compound 54] ([d2Thi][Bip]L[Phe(4-NH2)]-OH; linker N-4 via Suc),> 100
30,O=C1CCC(=O)N[C@H](Cc2cccs2)C(=O)N[C@@H](Cc2ccc(-c3ccccc3)cc2)C(=O)N(Cc2ccccc2)CC(=O)N[C@H](C(=O)O)Cc2ccc(cc2)N1 [Compound 55] ([d2Thi][Bip][Nphe][Phe(4-NH2)]-OH; linker N-4 via Suc),> 100
